In assay [1] the test system is RBL-2H3. Kind of assay: Antiinflammatory activity in rat RBL2H3 cells assessed as inhibition of DNP-BSA-induced TNF-alpha production at 1 nM preincubated for 15 mins prior DNP-BSA challenge measured after 30 mins by ELISA. It is filed as functional, cell-based. (In general: ELISA stands for enzyme-linked immunosorbent assay.)
Assay [2] concerns RBL-2H3. Kind of assay: Antiinflammatory activity in rat RBL2H3 cells assessed as inhibition of DNP-BSA-induced TNF-alpha production preincubated for 15 mins prior DNP-BSA challenge measured after 30 mins by ELISA. It is filed as functional, cell-based.
Assay [3] has as its system Radical scavenging activity. Kind of assay: Antioxidant activity assessed as DPPH radical scavenging activity after 30 mins by spectrophotometry. In kind it is functional. Background: DPPH is a stable violet radical that fades when it is reduced.

Each structure is given as a SMILES string. The source made the active and inactive calls. The calls are words filed in the database; no cut-off is given here.

Five molecules from ChEMBL document CHEMBL2010773, “Design and synthesis of a vialinin A analog with a potent inhibitory activity of TNF-α production and its transformation into a couple of bioprobes” (Bioorg Med Chem Lett, 2012) can be followed below.

What is called IC50 is the point on the concentration scale where inhibition reaches its midpoint. As usually defined, the EC50 is the concentration giving half of the maximal effect.

For the molecule `COCOc1c(OCOC)c(-c2ccc(O)cc2)c(C)c(C)c1-c1ccc(O)cc1`, the inhibition entry in assay [1] was “Active”. Also, the IC50 in assay [2] turned out to be 0.32 nM.

Regarding `O=C(Cc1ccccc1)Oc1c(OC(=O)Cc2ccccc2)c(-c2ccc(O)cc2)c(O)c(O)c1-c1ccc(O)cc1` [VIALININ A], the half-maximal effective concentration (EC50) in assay [3] is 14000 nM. Further, the concentration for half-maximal inhibition (IC50) in assay [2] was 0.09 nM.

For the molecule `Cc1c(C)c(-c2ccc(O)cc2)c(O)c(O)c1-c1ccc(O)cc1`, the IC50 in assay [2] was 0.02 nM.

With `Cc1c(C)c(-c2ccc(OCc3cn(CCCCCCNC(=O)CCCC[C@@H]4SC[C@@H]5NC(=O)N[C@@H]54)nn3)cc2)c(O)c(O)c1-c1ccc(O)cc1`, the IC50 in assay [2] turned out to be 8.15 nM.

As to `COc1ccc2c(COC(=O)CCCCCn3cc(COc4ccc(-c5c(C)c(C)c(-c6ccc(O)cc6)c(O)c5O)cc4)nn3)cc(=O)oc2c1`, in assay [2], the half-maximal inhibitory concentration (IC50) worked out at 0.55 nM.
